Reference: ChEMBL document CHEMBL3885881, “DrugMatrix”

Species: Rattus norvegicus
Assay: DrugMatrix - Regimen: Daily Repeat
Assay type: toxicity, organism-based, Sprague-Dawley
Design: regimen Daily Repeat, gender Male, age 6-8 weeks
Conditions: in vivo, po, route oral GAVAGE, […]; for ABSOLUTE BASOPHIL / ABSOLUTE EOSINOPHIL / ABSOLUTE LYMPHOCYTE / ABSOLUTE MONOCYTE / ABSOLUTE SEGMENTED NEUTROPHIL / BASOPHIL / EOSINOPHIL / ERYTHROCYTE COUNT / HEMATOCRIT / HEMOGLOBIN / LEUKOCYTE COUNT / LYMPHOCYTE / MEAN CORPUSCULAR HEMOGLOBIN / MEAN CORPUSCULAR HEMOGLOBIN CONCENTRATION / MEAN CORPUSCULAR VOLUME / MONOCYTE / NEUTROPHIL / NUCLEATED RED BLOOD CELLS / PLATELET COUNT: tissue Blood; for ALANINE AMINOTRANSFERASE / ALBUMIN / ALKALINE PHOSPHATASE / ASPARTATE AMINOTRANSFERASE / BLOOD UREA NITROGEN / CARBON DIOXIDE / CHLORIDE / CHOLESTEROL / CREATINE PHOSPHOKINASE / CREATININE / GLUCOSE / LACTATE DEHYDROGENASE / LIPASE / PHOSPHORUS / POTASSIUM / SODIUM / TOTAL BILIRUBIN / TOTAL PROTEIN / URIC ACID: tissue Plasma
[1] = 0 mg/kg, 72 h, dose level Control, time 3 day
[2] = 0 mg/kg, 120 h, dose level Control, time 5 day
[3] = 5 mg/kg, 72 h, dose level Low, time 3 day

## CC(C)n1c(/C=C/C(O)CC(O)CC(=O)O)c(-c2ccc(F)cc2)c2ccccc21 (centres undefined) [FLUVASTATIN]
[1]
  ABSOLUTE BASOPHIL: 0 CELLS/uL
  ABSOLUTE EOSINOPHIL: 33 CELLS/uL
  ABSOLUTE LYMPHOCYTE: 9048.5 CELLS/uL
  ABSOLUTE MONOCYTE: 80.17 CELLS/uL
  ABSOLUTE SEGMENTED NEUTROPHIL: 1521.67 CELLS/uL
  BASOPHIL: 0%
  EOSINOPHIL: 0.17%
  ERYTHROCYTE COUNT: 5.46 x10E6/uL
  HEMATOCRIT: 32.87%
  HEMOGLOBIN: 12.95 G/DL
  LEUKOCYTE COUNT: 10.68 x10E3/uL
  LYMPHOCYTE: 86.67%
  MEAN CORPUSCULAR HEMOGLOBIN: 23.72 pg
  MEAN CORPUSCULAR HEMOGLOBIN CONCENTRATION: 39.4 G/DL
  MEAN CORPUSCULAR VOLUME: 60.18 fL
  MONOCYTE: 0.83%
  NEUTROPHIL: 12.33%
  NUCLEATED RED BLOOD CELLS: 0 /100WBC
  PLATELET COUNT: 1211.33 x10E3/uL
  ALANINE AMINOTRANSFERASE: 76.67 u/L
  ALBUMIN: 3.93 G/DL
  ALKALINE PHOSPHATASE: 317.17 u/L
  ASPARTATE AMINOTRANSFERASE: 81.17 u/L
  BLOOD UREA NITROGEN: 12.33 mg/dL
  CARBON DIOXIDE: 31.17 mmol/L
  CHLORIDE: 98.33 MEQ/L
  CHOLESTEROL: 67.17 mg/dL
  CREATINE PHOSPHOKINASE: 312.33 u/L
  CREATININE: 0.19 mg/dL
  GLUCOSE: 165.5 mg/dL
  LACTATE DEHYDROGENASE: 94.5 u/L
  LIPASE: 9.83 u/L
  PHOSPHORUS: 10.1 mg/dL
  POTASSIUM: 5.16 MEQ/L
  SODIUM: 143.02 MEQ/L
  TOTAL BILIRUBIN: 0.2 mg/dL
  TOTAL PROTEIN: 5.88 G/DL
  URIC ACID: 0.68 mg/dL
[2]
  ABSOLUTE BASOPHIL: 0 CELLS/uL
  ABSOLUTE EOSINOPHIL: 14.67 CELLS/uL
  ABSOLUTE LYMPHOCYTE: 9629.83 CELLS/uL
  ABSOLUTE MONOCYTE: 72.5 CELLS/uL
  ABSOLUTE SEGMENTED NEUTROPHIL: 1049.67 CELLS/uL
  BASOPHIL: 0%
  EOSINOPHIL: 0.17%
  ERYTHROCYTE COUNT: 5.36 x10E6/uL
  HEMATOCRIT: 33.82%
  HEMOGLOBIN: 13.48 G/DL
  LEUKOCYTE COUNT: 10.77 x10E3/uL
  LYMPHOCYTE: 90.17%
  MEAN CORPUSCULAR HEMOGLOBIN: 25.28 pg
  MEAN CORPUSCULAR HEMOGLOBIN CONCENTRATION: 39.92 G/DL
  MEAN CORPUSCULAR VOLUME: 63.3 fL
  MONOCYTE: 0.67%
  NEUTROPHIL: 9%
  NUCLEATED RED BLOOD CELLS: 0.17 /100WBC
  PLATELET COUNT: 1275.33 x10E3/uL
  ALANINE AMINOTRANSFERASE: 93.67 u/L
  ALBUMIN: 4.17 G/DL
  ALKALINE PHOSPHATASE: 402.5 u/L
  ASPARTATE AMINOTRANSFERASE: 122.83 u/L
  BLOOD UREA NITROGEN: 14.75 mg/dL
  CARBON DIOXIDE: 26.4 mmol/L
  CHLORIDE: 98.5 MEQ/L
  CHOLESTEROL: 57.5 mg/dL
  CREATINE PHOSPHOKINASE: 305.17 u/L
  CREATININE: 0.21 mg/dL
  GLUCOSE: 142 mg/dL
  LACTATE DEHYDROGENASE: 83.5 u/L
  LIPASE: 85.83 u/L
  PHOSPHORUS: 8.18 mg/dL
  POTASSIUM: 5.46 MEQ/L
  SODIUM: 144 MEQ/L
  TOTAL BILIRUBIN: 0.25 mg/dL
  TOTAL PROTEIN: 5.63 G/DL
  URIC ACID: 0.8 mg/dL
[3]
  ABSOLUTE BASOPHIL: 0 CELLS/uL
  ABSOLUTE EOSINOPHIL: 0 CELLS/uL
  ABSOLUTE LYMPHOCYTE: 7777.67 CELLS/uL
  ABSOLUTE MONOCYTE: 91 CELLS/uL
  ABSOLUTE SEGMENTED NEUTROPHIL: 864.67 CELLS/uL
  BASOPHIL: 0%
  EOSINOPHIL: 0%
  ERYTHROCYTE COUNT: 5.27 x10E6/uL
  HEMATOCRIT: 32.97%
  HEMOGLOBIN: 13.1 G/DL
  LEUKOCYTE COUNT: 8.73 x10E3/uL
  LYMPHOCYTE: 89%
  MEAN CORPUSCULAR HEMOGLOBIN: 24.87 pg
  MEAN CORPUSCULAR HEMOGLOBIN CONCENTRATION: 39.77 G/DL
  MEAN CORPUSCULAR VOLUME: 62.47 fL
  MONOCYTE: 1%
  NEUTROPHIL: 10%
  NUCLEATED RED BLOOD CELLS: 0 /100WBC
  PLATELET COUNT: 1163 x10E3/uL
  ALANINE AMINOTRANSFERASE: 67 u/L
  ALBUMIN: 3.93 G/DL
  ALKALINE PHOSPHATASE: 305.67 u/L
  ASPARTATE AMINOTRANSFERASE: 95.33 u/L
  BLOOD UREA NITROGEN: 12 mg/dL
  CARBON DIOXIDE: 30.67 mmol/L
  CHLORIDE: 98 MEQ/L
  CHOLESTEROL: 76 mg/dL
  CREATINE PHOSPHOKINASE: 453.67 u/L
  CREATININE: 0.18 mg/dL
  GLUCOSE: 193.33 mg/dL
  LACTATE DEHYDROGENASE: 209.33 u/L
  LIPASE: 9.67 u/L
  PHOSPHORUS: 10.07 mg/dL
  POTASSIUM: 5.48 MEQ/L
  SODIUM: 142.9 MEQ/L
  TOTAL BILIRUBIN: 0.2 mg/dL
  TOTAL PROTEIN: 5.8 G/DL
  URIC ACID: 0.63 mg/dL
